Source: patent publication US11414424B2, “Cardiac sarcomere inhibitors” (Cytokinetics, Inc., priority 2018, dated 2022)

System: bovine cardiac myofibrils
Assay: Myofibril assay: PK/LDH-coupled steady-state ATPase activity of skinned bovine cardiac myofibrils
Type: biochemical
Settings: Ca2+ activating to 75% of maximal rate
How it was run: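 Steady-state ATPase of detergent-skinned bovine left-ventricular myofibrils (1 mg/mL), PK/LDH-coupled NADH read at 340 nm, in PIPES/MgCl2 buffer pH 6.8 with 50 μM ATP, 0.6 mM EGTA and CaCl2 set for 50% or 75% activation. Inhibition of activity measured.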

CCC1CCC(N2CC(=O)N(Cc3ccc(C(F)(F)F)cc3)C3(CN(C(C)=O)C3)C2=O)CC1 (stereo not shown) [Compound 323, 2-acetyl-8-(4-ethylcyclo-hexyl)-5-(4-(trifluoro-methyl)benzyl)-2,5,8-triazaspiro[3.5]nonane-6,9-dione] was tested, and the “CDMF75 IC15” value was 6.4 µM.
For CC(=O)N1CC2(C1)C(=O)N(C1CCC(C(F)F)CC1)CC(=O)N2Cc1ccc(C(F)(F)F)cc1 (stereo not shown) [Compound 324, 2-acetyl-8-(4-(difluoro-methyl)cyclohexyl)-5-(4-(trifluoromethyl)benzyl)-2,5,8-triazaspiro[3.5]-nonane-6,9-dione], the “CDMF75 IC15” value was 11.5 µM.
CC(=O)N1CC2(C1)C(=O)N([C@H]1CC[C@H](C#N)CC1)CC(=O)N2Cc1ccc(C(F)(F)F)cc1 [Compound 325, (1r,4r)-4-(2-acetyl-6,9-dioxo-5-(4-(trifluoromethyl)benzyl)-2,5,8-triazaspiro[3.5]nonan-8-yl)cyclohexane-l-carbonitrile] was tested, and the “CDMF75 IC15” value was 22.8 µM.
For CC(=O)N1CC2(C1)C(=O)N(C1CCCCCC1)CC(=O)N2Cc1ccc(C(F)(F)F)cc1 [Compound 326, 2-acetyl-8-cycloheptyl-5-(4-(trifluoromethyl)benzyl)-2,5,8-triazaspiro[3.5]-nonane-6,9-dione], the “CDMF75 IC15” value was 23.7 µM.
CC(C)N1CC(=O)N(Cc2ccc(C(F)(F)F)cc2)C2(CCN(c3ccccc3)C2=O)C1=O (stereo not shown) [Compound 327, 9-isopropyl-2-phenyl-6-(4-(trifluoromethyl)benzyl)-2,6,9-triazaspiro[4.5]decane-1,7,10-trione] was tested, and the “CDMF75 IC15” value was 9.8 µM.
For CC(C)N1CC(=O)N([C@@H](C)c2ccc(C(F)(F)F)cc2)C2(CN(c3ccccc3)C2)C1=N [Compound 328, (S)-9-imino-8-isopropyl-2-phenyl-5-(1-(4-(trifluoromethyl)phenyl)ethyl)-2,5,8-triazaspiro[3.5]nonan-6-one], the “CDMF75 IC15” value was 19.3 µM.
With CC(C)N1C(=O)C2(CN(c3ccccc3)C2)N(Cc2ccc(Cl)cc2)C(=O)C1C (stereo not shown) [Compound 329, 5-(4-chlorobenzyl)-8-isopropyl-7-methyl-2-phenyl-2,5,8-triazaspiro-[3.5]nonane-6,9-dione] the “CDMF75 IC15” value was 9.3 µM.
For CC(C)N1CC(=O)N(Cc2ccc(Cl)cc2)C2(CCN(c3cnn(C)c3)C2=O)C1=O (stereo not shown) [Compound 330, 6-(4-chlorobenzyl)-9-isopropyl-2-(1-methyl-1H-pyrazol-4-yl)-2,6,9-triazaspiro[4.5]decane-1,7,10-trione], the “CDMF75 IC15” value was 10.7 µM.
With CC(C)N1CC(=O)N(Cc2ccc(Cl)cc2)C2(CC(=O)N(c3ccccc3)C2)C1=O (stereo not shown) [Compound 331, 6-(4-chlorobenzyl)-9-isopropyl-2-phenyl-2,6,9-triazaspiro[4.5]decane-3,7,10-trione] the “CDMF75 IC15” value was 30.9 µM.
For CC(C)N1CC(=O)N(Cc2ccc(Cl)cc2)C2(CC(=O)N(c3ccccn3)C2)C1=O (stereo not shown) [Compound 332, 6-(4-chlorobenzyl)-9-isopropyl-2-(pyridin-2-yl)-2,6,9-triazaspiro[4.5]decane-3,7,10-trione], the “CDMF75 IC15” value was 16.6 µM.
With Cc1cc(N2CCC3(C2=O)C(=O)N(C(C)C)CC(=O)N3Cc2ccc(Cl)cc2)ccn1 (stereo not shown) [Compound 333, 6-(4-chlorobenzyl)-9-isopropyl-2-(2-methyl-pyridin-4-yl)-2,6,9-triazaspiro[4.5]decane-1,7,10-trione] the “CDMF75 IC15” value was 16.6 µM.
CNC(=O)N1CCC2(C1)C(=O)N(Cc1ccc(OC)cc1)CC(=O)N2Cc1ccc(Cl)cc1 (stereo not shown) [Compound 334, 6-(4-chlorobenzyl)-9-(4-methoxybenzyl)-N-methyl-7,10-dioxo-2,6,9-triazaspiro[4.5]decane-2-carboxamide] was tested, and the “CDMF75 IC15” value was 8.0 µM.
For CNC(=O)N1CC2(C1)C(=O)N(Cc1ccc(C(F)(F)F)cc1)CC(=O)N2Cc1ccc(C(F)(F)F)cc1 [Compound 335, N-methyl-6,9-dioxo-5,8-bis(4-(trifluoromethyl)benzyl)-2,5,8-triazaspiro[3.5]nonane-2-carboxamide], the “CDMF75 IC15” value was 12.2 µM.
For CNC(=O)N1CC2(C1)C(=O)N(Cc1ccc(C#N)cc1)CC(=O)N2Cc1ccc(C(F)(F)F)cc1 [Compound 336, 8-(4-cyanobenzyl)-N-methyl-6,9-dioxo-5-(4-(trifluoromethyl)benzyl)-2,5,8-triazaspiro[3.5]nonane-2-carboxamide], the “CDMF75 IC15” value was 1.1 µM.
CNC(=O)N1CC2(C1)C(=O)N(Cc1ccc(Cl)cc1)CC(=O)N2Cc1ccc(C(F)(F)F)cc1 [Compound 337, 8-(4-chlorobenzyl)-N-methyl-6,9-dioxo-5-(4-(trifluoromethyl)benzyl)-2,5,8-triazaspiro[3.5]-nonane-2-carboxamide] was tested, and the “CDMF75 IC15” value was 1.63 µM.
CNC(=O)N1CC2(C1)C(=O)N(C(C)c1ccc(C#N)cc1)CC(=O)N2Cc1ccc(C(F)(F)F)cc1 (stereo not shown) [Compound 338, 8-(1-(4-cyanophenyl)ethyl)-N-methyl-6,9-dioxo-5-(4-(trifluoromethyl)benzyl)-2,5,8-triazaspiro[3.5]nonane-2-carboxamide] was tested, and the “CDMF75 IC15” value was 1.51 µM.
CC(=O)N1CC2(C1)C(=O)N(c1ccc(Cl)cc1F)CC(=O)N2[C@@H](C)c1ccc(C(F)(F)F)cc1 [Compound 340, (S)-2-acetyl-8-(4-chloro-2-fluorophenyl)-5-(1-(4-(trifluoromethyl)phenyl)-ethyl)-2,5,8-triazaspiro-[3.5]nonane-6,9-dione] was tested, and the “CDMF75 IC15” value was 0.7 µM.
With CC(=O)N1CC2(C1)C(=O)N(c1ccc(Cl)cc1F)C(C)C(=O)N2Cc1ccc(C(F)(F)F)cc1 (stereo not shown) [Compound 341, 2-acetyl-8-(4-chloro-2-fluorophenyl)-7-methyl-5-(4-(trifluoromethyl)benzyl)-2,5,8-triazaspiro[3.5]nonane-6,9-dione] the “CDMF75 IC15” value was 5.4 µM.
For COCC1C(=O)N(Cc2ccc(Cl)cc2)C2(CN(c3ccc(C#N)cn3)C2)C(=O)N1C(C)C (stereo not shown) [Compound 347, 6-(5-(4-chlorobenzyl)-8-isopropyl-7-(methoxymethyl)-6,9-dioxo-2,5,8-triazaspiro[3.5]nonan-2-yl)nicotinonitrile], the “CDMF75 IC15” value was 26.4 µM.
N#Cc1ccc(N2CCC3(C2)C(=O)N(c2ccc([N+](=O)[O-])cc2)CC(=O)N3Cc2ccc(Cl)cc2)nc1 (stereo not shown) [Compound 348, 6-(6-(4-chlorobenzyl)-9-(4-nitrophenyl)-7,10-dioxo-2,6,9-triazaspiro[4.5]decan-2-yl)nicotinonitrile] was tested, and the “CDMF75 IC15” value was 0.7 µM.
For CNC(=O)N1CCC2(C1)C(=O)N(c1ccc([N+](=O)[O-])cc1)CC(=O)N2Cc1ccc(Cl)cc1 (stereo not shown) [Compound 349, 6-(4-chlorobenzyl)-N-methyl-9-(4-nitrophenyl)-7,10-dioxo-2,6,9-triazaspiro[4.5]decane-2-carboxamide], the “CDMF75 IC15” value was 0.9 µM.
In the case of N#Cc1ccc(N2CC3(C2)C(=O)N(c2ccccc2)CC(=O)N3Cc2ccc(C(F)(F)F)cc2)nc1 [Compound 350, 6-(6,9-dioxo-8-phenyl-5-(4-(trifluoromethyl)benzyl)-2,5,8-triazaspiro[3.5]nonan-2-yl)nicotinonitrile], the “CDMF75 IC15” value is reported as 5.5 µM.
For CC(C)NC(=O)N1CCC2(C1)C(=O)N(C(C)C)CC(=O)N2Cc1ccc(Cl)cc1 (stereo not shown) [Compound 383, 6-(4-chlorobenzyl)-N,9-diisopropyl-7,10-dioxo-2,6,9-triazaspiro[4.5]-decane-2-carboxamide], the “CDMF75 IC15” value was over 39 µM.
For CC(C)N1CC(=O)N(Cc2ccc(Cl)cc2)C2(CCN(C(=O)Nc3ccccn3)C2)C1=O (stereo not shown) [Compound 385, 6-(4-chlorobenzyl)-9-isopropyl-7,10-dioxo-N-(pyridin-2-yl)-2,6,9-triazaspiro[4.5]decane-2-carboxamide], the “CDMF75 IC15” value was over 39 µM.
In the case of COCCNC(=O)N1CCC2(C1)C(=O)N(C(C)C)CC(=O)N2Cc1ccc(Cl)cc1 (stereo not shown) [Compound 387, 6-(4-chlorobenzyl)-9-isopropyl-N-(2-methoxy-ethyl)-7,10-dioxo-2,6,9-triazaspiro[4.5]decane-2-carboxamide], the “CDMF75 IC15” value is reported as over 39 µM.
In the case of CC(C)(C)OC(=O)[C@H]1C[C@]2(C1)C(=O)N(c1ccc(C#N)cc1F)CC(=O)N2Cc1ccc(C(F)(F)F)cc1 [Compound 429B], the “CDMF75 IC15” value is reported as 0.2 µM.
With Cc1noc([C@H]2C[C@]3(C2)C(=O)N(c2ccc(C#N)cc2F)CC(=O)N3Cc2ccc(C(F)(F)F)cc2)n1 [Compound 432B] the “CDMF75 IC15” value was 0.5 µM.
Cc1cnc(C2CC3(C2)C(=O)N(c2ccc(C#N)cc2F)CC(=O)N3Cc2ccc(C(F)(F)F)cc2)o1 (stereo not shown) [Compound 436B] was tested, and the “CDMF75 IC15” value was 0.3 µM.
For Cc1coc([C@H]2C[C@]3(C2)C(=O)N(c2ccc(C#N)cc2F)CC(=O)N3Cc2ccc(C(F)(F)F)cc2)n1 [Compound 442B], the “CDMF75 IC15” value was 0.4 µM.
With N#Cc1ccc(N2CC(=O)N(Cc3ccc(C(F)(F)F)cc3)[C@]3(C[C@H](C(=O)N4CCOCC4)C3)C2=O)c(F)c1 [Compound 444B] the “CDMF75 IC15” value was 0.2 µM.
For N#Cc1ccc(N2CC(=O)N(Cc3ccc(C(F)(F)F)cc3)[C@]3(C[C@H](c4nnc(C(F)F)o4)C3)C2=O)c(F)c1 [Compound 454B], the “CDMF75 IC15” value was 0.1 µM.
In the case of N#Cc1ccc(N2CC(=O)N(Cc3ccc(C(F)(F)F)cc3)[C@]3(C[C@H](C(=O)NC4CC4)C3)C2=O)c(F)c1 [Compound 459, (2r,4r)-8-(4-cyano-2-fluoro-phenyl)-N-cyclopropyl-6,9-dioxo-5-(4-(trifluoromethyl)benzyl)-5,8-diazaspiro[3.5]nonane-2-carboxamide], the “CDMF75 IC15” value is reported as 4.5 µM.
With CNC(=O)N[C@H]1C[C@]2(C1)C(=O)N(c1ccc(C#N)cc1F)CC(=O)N2Cc1ccc(C(F)(F)F)cc1 [Compound 463B] the “CDMF75 IC15” value was 0.4 µM.
For N#Cc1ccc(N2CC(=O)N(Cc3ccc(C(F)(F)F)cc3)[C@]3(C[C@H](CO)C3)C2=O)c(F)c1 [Compound 475B], the “CDMF75 IC15” value was 0.6 µM.
In the case of CC(C)(O)C1CC2(C1)C(=O)N(c1ccc(C#N)cc1F)CC(=O)N2Cc1ccc(C(F)(F)F)cc1 (stereo not shown) [Compound 479B], the “CDMF75 IC15” value is reported as 2.8 µM.
For CNC(=O)[C@H]1C[C@]2(C1)C(=O)N(c1ccc(C#N)cc1F)CC(=O)N2Cc1ccc(C(F)(F)F)cc1 [Compound 486B], the “CDMF75 IC15” value was 0.7 µM.
CNC(=O)[C@H]1C[C@]2(C1)C(=O)N(C(C)C)CC(=O)N2Cc1ccc(C(F)(F)F)cc1 [Compound 498B] was tested, and the “CDMF75 IC15” value was 29.8 µM.
